Assay results reported in US20060058325A1, “Therapeutic quniazoline derivatives” (AstraZeneca AB, priority 2002, published 2006).

Key:
[1] = molecular target: T1, Aurora-A (Homo sapiens, UniProt O14965); assay: In vitro Aurora-A kinase inhibition test; format: biochemical
T1 construct: made in house; host or cells: Spodoptera frugiperda Sf21 insect cells (baculovirus)
T1 sequence (O14965 1-403): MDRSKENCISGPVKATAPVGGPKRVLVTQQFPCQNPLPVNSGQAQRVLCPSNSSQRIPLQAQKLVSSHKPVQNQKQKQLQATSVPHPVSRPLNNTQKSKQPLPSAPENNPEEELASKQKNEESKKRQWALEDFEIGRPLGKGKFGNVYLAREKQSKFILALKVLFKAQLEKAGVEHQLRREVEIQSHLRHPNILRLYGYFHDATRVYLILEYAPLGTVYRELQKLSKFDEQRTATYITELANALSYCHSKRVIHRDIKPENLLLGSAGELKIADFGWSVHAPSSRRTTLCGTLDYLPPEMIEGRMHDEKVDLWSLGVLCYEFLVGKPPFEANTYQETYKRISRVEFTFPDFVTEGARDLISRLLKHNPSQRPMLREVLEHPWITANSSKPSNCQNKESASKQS

[2] = molecular target: T2, Aurora-B (Homo sapiens, UniProt Q96GD4); assay: In vitro Aurora-B kinase inhibition test; format: biochemical; conditions: recombinant Aurora-B, 33P-ATP peptide substrate, 60 minutes room temperature; read-out: concentration giving 50% inhibition of enzyme activity
T2 construct: 6-histidine; made in house; host or cells: Spodoptera frugiperda Sf21 insect cells (baculovirus)
Text: (b) In Vitro Aurora-B Kinase Inhibition Test
This assay determines the ability of a test compound to inhibit serine-threonine kinase activity. DNA encoding Aurora-B may be obtained by total gene synthesis or by cloning. This DNA may then be expressed in a suitable expression system to obtain polypeptide with serine-threonine kinase activity. In the case of Aurora-B, the coding sequence was isolated from cDNA by polymerase chain reaction (PCR) and cloned into the pFastBac system in a manner similar to that described above for Aurora-A (i.e. to direct expression of a 6-histidine tagged Aurora-B protein).
For the large scale expression of Aurora-B kinase activity, Sf21 insect cells were grown at 28° C. in TC100 medium supplemented with 10% foetal calf serum (Viralex) and 0.2% F68 Pluronic (Sigma) on a Wheaton roller rig at 3 r.p.m. When the cell density reached 1.2×10^6 cells ml^−1 they were infected with plaque-pure Aurora-B recombinant virus at a multiplicity of infection of 1 and harvested 48 hours later. All subsequent purification steps were performed at 4° C. […]

[3] = system: SW620 cells; assay: In vitro cell proliferation assay (BrdU incorporation); format: cell-based; conditions: Homo sapiens, SW-620, 48 hours with compound, 2 hour BrdU labelling, read-out: concentration active in test (50% inhibition of BrdU incorporation)
Text: (c) In Vitro Cell Proliferation Assay
This and other assays can be used to determine the ability of a test compound to inhibit the growth of adherent mammalian cell lines, for example the human tumour cell line SW620 (ATCC CCL-227). This assay determines the ability of at test compound to inhibit the incorporation of the thymidine analogue, 5′-bromo-2′-deoxy-uridine (BrdlD into cellular DNA. SW620 or other adherent cells were typically seeded at 1×10^5 cells per well in L-15 media (GIBCO) plus 5% foetal calf serum, 1% L-glutamine (100 μl /well) in 96 well tissue culture treated 96 well plates (Costar) and allowed to adhere overnight. The following day the cells were dosed with compound (diluted from 10 mM stock in DMSO using L-15 (with 5% FCS, 1% L-glutamine). Untreated control wells and wells containing a compound known to give 100% inhibition of BrdU incorporation were included on each plate. After 48 hours in the presence/absence of test compound the ability of the cells to incorporate BrdU over a 2 hour labelling period was determined using a Boelringer (Roche) Cell Proliferation BrdU ELISA kit (cat. No. 1 647 229) according to manufacturers directions. […] The optical density of the wells was then determined at 690 nm wavelength using a Titertek Multiscan plate reader. […]

[4] = system: SW620 cells; assay: In vitro cell cycle analysis assay (FACS DNA content); format: cell-based, human; conditions: 24 hours with compound
Experimental: (d) In Vitro Cell Cycle Analysis Assay
This assay determines the ability of a test compound to arrest cells in specific phases of the cell cycle. Many different mammalian cell lines could be used in this assay and SW620 cells are included here as an example. SW620 cells were seeded at 7×10^5 cells per T25 flask (Costar) in 5 ml L-15 (5% FCS, 1% L-glutamine). Flasks were then incubated overnight in a humidified 37° C. incubator with 5% CO2. The following day, 5 μl of L-15 (5% FCS, 1% L-glutamine) carrying the appropriate concentration of test compound solubilised in DMSO was added to the flask. A no compound control treatments was also included (0.5% DMSO). The cells were then incubated for a defined time (24 hours) with compound. […]
Each sample was then syringed 10 times using 21-guage needle. The samples were then transferred to LPS tubes and DNA content per cell analysed by Fluorescence activated cell sorting (FACS) using a FACScan flow cytometer (Becton Dickinson). Typically 30,000 events were counted and recorded using CellQuest v1.1 software (Verity Software). Cell cycle distribution of the population was calculated using Modfit software (Verity Software) and expressed as percentage of cells with 2N (G0/G1), 2N-4N (S phase) and with 4N (G2/M) DNA content. […]

T2 sequence (Q96GD4 whole entry): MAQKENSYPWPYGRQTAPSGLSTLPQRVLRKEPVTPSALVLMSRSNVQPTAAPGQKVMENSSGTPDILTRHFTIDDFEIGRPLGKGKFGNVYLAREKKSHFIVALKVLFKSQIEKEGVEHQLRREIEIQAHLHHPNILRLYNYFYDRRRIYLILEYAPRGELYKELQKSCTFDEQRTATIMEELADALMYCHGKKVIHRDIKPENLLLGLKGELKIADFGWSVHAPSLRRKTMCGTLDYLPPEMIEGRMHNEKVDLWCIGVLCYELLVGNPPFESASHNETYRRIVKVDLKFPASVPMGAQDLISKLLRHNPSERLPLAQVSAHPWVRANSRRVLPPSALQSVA

With `CCN(CCCOc1cc2ncnc(Nc3cnc(NC(=O)c4ccc(F)c(Cl)c4)nc3)c2cc1OC)CCOP(=O)(O)O` [Compound 24, 2-[(3-{[4-({2-[(3-chloro-4-fluorobenzoyl)amino]pyrimidin-5-yl}amino)-6-methoxyquinazolin-7-yl]oxy}propyl)(ethyl)amino]ethyl dihydrogen phosphate] the IC50 [1] was 0.0003 µM, the IC50 [2] was 0.0123 µM and the IC50 [3] was 0.3 µM. For the same compound, the “concentration active in cell cycle analysis test” value [4] was 1.5 µM.
